# Test results reported in patent US11058756B2, “Compositions and methods of treating autoimmune disease by reducing enterococcus” (YALE UNIVERSITY, priority 2017, dated 2021).
# System: (NZWxBXSB)F1 mice
# Assay: Serum ELISAs for anti-dsDNA, anti-RNA, anti-β2GPI IgG, ERV gp70 protein and anti-ERV gp70 immune complexes
# Format: in vivo, mouse
# Source text: Mice were cohoused for 3 to 4 weeks before antibiotic treatment to allow for equilibration of the microbiota. Single antibiotic or broad-spectrum antibiotic administration consisted of metronidazole (1 g/liter; Fisher Scientific), neomycin (1 g/liter; Fisher Scientific), ampicillin (1 g/liter; Sigma) and vancomycin (0.5 g/liter; Acros Organics) in the drinking water for up to 22 weeks or a targeted regiment for 2 weeks and then replaced with regular water for the duration of the experiment. For broad-spectrum antibiotic experiments (vancomycin, ampicillin, metronidazole, and neomycin combined), sweetener (Equal, 4 g/L) was added to both the antibiotics and control water due to the metallic taste of metronidazole. Twenty-four hours after cessation of antibiotic water, mice were administered 1×10^6 CFUs of vancomycin-resistant E. gallinarum via oral gavage, isolated from liver tissue of a vancomycin-treated mouse that continued to show signs of autoimmune disease (high-level resistance was confirmed by vanC gene PCR). E. gallinarum was grown at 37° C. in Gifu Anaerobic Broth (HIMEDIA Laboratories) to early stationary phase under anaerobic conditions (82% N2, 15% CO2, 3% H2 by volume) in an anaerobic chamber and diluted in PBS to 10^7 CFUs.
# Serum antibodies specific for dsDNA and b2GPI were determined using standardized ELISAs (anti-dsDNA antibody, Abcam; and, Mouse/Rat Apolipoprotein H Antibody, R&D Systems; respectively). Anti-RNA was determined by ELISA using defined positive controls (Human/Mouse RNA Polymerase II Antibody, R&D systems). Anti-ERV gp70 ICs and ERV gp70 protein were determined by OD450 signal comparisons (Evans et al., 1990, J Virol, 64, 6176-6183). For anti-dsDNA ELISAs, DNA-BIND™ (Corning) plates were coated with 100 μg/ml salmon sperm DNA (Fisher Scientific) and blocked in 0.1M PBS, 3.0% BSA, 5.0% FBS. The serum was diluted 1:1000 for the assay and incubated for 1 hour at 37° C. Wells were washed and incubated for 1 hour at 37° C. with rabbit anti-mouse IgG (Fisher Scientific) conjugated to HRP and developed with TMB substrate solution. 2M sulfuric acid (Sigma) solution was used to stop development. The concentration of anti-dsDNA was determined by reading the absorbance at 450 nm/570 nm reference.
# For anti-RNA ELISAs, DNA-BIND™ (Corning) plates were coated with […] yeast RNA (Ambion) and blocked in 0.1M PBS, 0.05% Tween-20, 5.0% FBS. The serum was diluted 1:1000 for the assay and incubated for 1 hour at 37° C. Wells were washed and incubated for 1 hour at 37° C. with rabbit anti-mouse IgG (Fisher Scientific) conjugated to HRP and developed with TMB substrate solution. 2M sulfuric acid (Sigma) solution was used to stop development. The concentration of anti-RNA IgG was determined by reading the absorbance at 450 nm/570 nm reference.
# For anti-b2GPI ELISAs, Corning® 96-well EIA/RIA easy Wash™ clear flat-bottom polystyrene high-bind microplates were coated with […] recombinant b2GPI/ApoH (R&D Systems) and blocked in Pierce Protein-Free (PBS) Blocking Buffer (Thermo Scientific). The serum was diluted 1:100 for the assay and incubated at room temperature for 2 hours on a shaker. Wells were washed and incubated while shaking for 30 minutes at room temperature with goat anti-mouse IgG (Fisher Scientific) conjugated to HRP and developed with TMB substrate solution. 2M sulfuric acid (Sigma) solution was used to stop development. The concentration of anti-b2GPI was determined by reading the absorbance at 450 nm/650 nm reference. […]
structure (smiles),measurement,setting,value
CN[C@H](CC(C)C)C(=O)N[C@H]1C(=O)N[C@@H](CC(N)=O)C(=O)N[C@H]2C(=O)N[C@H]3C(=O)N[C@H](C(=O)N[C@H](C(=O)O)c4cc(O)cc(O)c4-c4cc3ccc4O)[C@H](O)c3ccc(c(Cl)c3)Oc3cc2cc(c3O[C@@H]2O[C@H](CO)[C@@H](O)[C@H](O)[C@H]2O[C@H]2C[C@](C)(N)[C@H](O)[C@H](C)O2)Oc2ccc(cc2Cl)[C@H]1O [vancomycin],lupus-related autoantibodies (serum anti-dsDNA and anti-RNA IgG),"single antibiotic in drinking water, 16 weeks of age, FIG. 1B-1C",prevented
same,anti-β2GPI,"vancomycin 0.5 g/L in drinking water from 6 weeks of age, FIG. 7",suppressed
same,serum ERV gp70,"vancomycin 0.5 g/L in drinking water from 6 weeks of age, FIG. 7K",suppressed
same,anti-ERV gp70 immune complexes (ICs),"vancomycin 0.5 g/L in drinking water from 6 weeks of age, FIG. 7L",suppressed
